Measurements from ChEMBL document CHEMBL3507680, “University of Dundee, Gates Library screen for HepG2 cell viability”.

Test: Human HepG2 cell viability assay in 384 well format
Format: toxicity, cell-based
Set-up: dose 125 nL, time 70.5 hour; concentration not given beside the values
Settings: HepG2 cells, read-out: Inhibition

SMILES | cytotoxicity at 70.5 h
N#Cc1c(F)cccc1Nc1cnn(CC(O)CN2CCOCC2)c1 (stereo not drawn) | -102%
NC(=O)C1CCN(c2ccc3cc(Br)ccc3n2)C1 (stereo not drawn) | -89.2%
CCN(CC)C(=O)CCc1nc(-c2cnn3c(C)cc(C)nc23)no1 | -121%
CNS(=O)(=O)CC(=O)N1CCCc2cc(Br)ccc21 | -88.8%
N#Cc1c(Cl)nsc1NCc1cccnc1OC1CCCC1 | -94.1%
O=C(OCC1CCCN(C(=O)c2ccccc2)C1)c1cscn1 (stereo not drawn) | -88.6%
CN(Cc1cnn(C)c1)C(=O)CCS(=O)(=O)c1ccc2c(c1)OCCO2 | -112%
CCOc1ccc(CNC(=O)N(C)CC(C)(C)O)cc1C | -60%
CCn1nc(C)cc1C(=O)N1CCC(Nc2ccc(C)nn2)CC1 | -85.5%
CN(Cc1cnn(C)c1)C(=O)CCc1ccc2c(c1)OCO2 | -58.4%
CN(Cc1cc(Br)cn1C)C(=O)c1cscn1 | -0.963%
CNS(=O)(=O)Cc1ccccc1CNc1ccc(C#N)cn1 | 22.4%
COc1cc(CNC(=O)Nc2nnc(C(C)C)s2)ccc1O | -10.5%
COc1cc(CNC(=O)Nc2nnc(C(F)(F)F)s2)ccc1O | 2.56%
CNS(=O)(=O)Cc1ccc(CNc2ccc(C#N)cn2)cc1 | -6.5%
Cc1nnc2n1CCN(C(=O)c1cnc3c(cnn3C(C)C)c1)C2 | 25.5%
CCCN1CCCN(C(=O)Nc2ccc3c(c2)OCO3)CC1 | -7.91%
Cc1nnc2n1CCN(C(=O)c1cnc3c(cnn3CC(C)C)c1)C2 | 25.8%
CCCn1[nH]cc/c1=N\C(=O)CN1CCCC1c1cccn1C (stereo not drawn) | -2.18%
O=C(NS(=O)(=O)Cc1cc(-c2ccccc2)no1)C1CCOCC1 | -1.22%
CCOCC(=O)NC(C)Cc1ccccc1Br (stereo not drawn) | -4.95%
CS(=O)(=O)CCC(=O)NC(c1ccc(F)cc1)C(F)(F)F (stereo not drawn) | -1.59%
Cc1cc(S(=O)(=O)N2CC[C@@H](O)C2)c(Cl)cc1F | -6.21%
COC(=O)NCCC(=O)NC(C)Cc1ccccc1Br (stereo not drawn) | -7.4%

SMILES | cytotoxicity at 70.5 h
Cc1ccc(N(CCC#N)C(=O)CN2CCCC2c2cccs2)cc1 (stereo not drawn) | -2.42%
CCCn1[nH]cc/c1=N\C(=O)CN1CCCC1Cn1cc(C)cn1 (stereo not drawn) | -4.99%
CC(CS(C)(=O)=O)N(C(=O)Nc1cc(F)ccc1Cl)C1CC1 (stereo not drawn) | 2.35%
CCc1ccc(CNC(=O)CCNc2ncccn2)s1 | -13.5%
O=C(CCNc1ncccn1)NCc1ccc(Br)s1 | -11.3%
CCc1ccc(CNC(=O)CCNS(=O)(=O)c2cn(C)c(C)n2)s1 | -7.93%
O=C(CN1C=Nc2ccccc2S1(=O)=O)NC1CCCCC1 | 3.38%
O=C(c1cc(C2CC2)[nH]n1)N1CCCN(c2nccs2)CC1 | -5.32%
CC(NC(=O)CN1C=Nc2ccccc2S1(=O)=O)C1CC1 (stereo not drawn) | 11%
Cc1csc(N2CCN(C(=O)c3cc(C4CC4)[nH]n3)CC2)n1 | -5.91%
CCCc1nc(C)c(C(=O)NCc2ccc(C)n2C)s1 | 17.6%
Cc1cnn(CCC(=O)NS(=O)(=O)N2CCCc3ccccc32)c1 | -5.92%
Cc1cnn(CCC(=O)NS(=O)(=O)N2CCc3ccccc32)c1 | -8.38%
Cc1c(Br)cccc1C(=O)NCc1cnn(C)c1 | 2.04%
Cc1c(NC(C)C(C)C)cccc1C(=O)NCc1nccn1C (stereo not drawn) | -3.37%
O=C(CC1=CCCCC1)NCc1ccnc(OC2CCOCC2)c1 | -6.35%
CCOC(=O)c1ccc(CNC(=O)c2ccc(C)nc2)o1 | 11%
Cc1cc(C(=O)OCC2CCCN2C(N)=O)c(C)o1 (stereo not drawn) | -6.63%
COc1ccccc1CC1CCN(C(=O)CCc2ccccn2)CC1 | -8.07%
CCOC(=O)c1ccc(CNC(=O)c2ccncc2Cl)o1 | -7.26%
Cc1nc(C(C)C)sc1C(=O)N(C)Cc1cnn(C)c1 | 14.2%
COc1ccccc1CC1CCCN(CCN2CCOC2=O)C1 (stereo not drawn) | -7.17%
O=C(CS(=O)(=O)c1ccc(Cl)cc1)NC1CCCc2ccccc21 (stereo not drawn) | 1.89%
Cc1noc(C)c1C(=O)NCCN1CCN(c2ccccc2)CC1 | 1.76%

SMILES | cytotoxicity at 70.5 h
CS(=O)(=O)NC1CCCN(C(=O)Nc2cccnc2N2CCCC2)C1 (stereo not drawn) | 0.921%
COCCn1nc(C(=O)N(C)Cc2ccc3ccccc3c2)ccc1=O | -0.954%
Cc1ccsc1C(=O)N1CCC(Nc2cccnc2)CC1 | -4.2%
COCCOc1ccc(NC(=O)N2CCOC(C(N)=O)C2)cc1F (stereo not drawn) | 25.8%
CC(C)c1nnc2n1CCN(C(=O)c1cn(-c3ccccc3)nn1)C2 | -6.83%
N#CCSCCCN1CCN(C(=O)c2cccc(Cl)c2)CC1 | 2.68%
COCCn1nc(C(=O)N(C)Cc2cccnc2)ccc1=O | 4.23%
COCCNC(=O)CN(C)CCn1nc2ccccn2c1=O | -5.55%
COC(=O)C(C)(C)NC(=O)C1CC(=O)N(C2CC2)C1 (stereo not drawn) | -6.5%
CCOC(=O)N1CCN(C(=O)c2cc(-c3ccccc3F)on2)CC1 | -0.971%
O=C(NCc1cccnc1)NC1CCCN(c2ncccn2)C1 (stereo not drawn) | -10.3%
O=C(NCc1cccc(F)c1)NC1CCCN(c2ncccn2)C1 (stereo not drawn) | -9.75%
N#Cc1ccc(CNC(=O)NC2CCCN(c3ncccn3)C2)cc1 (stereo not drawn) | -9.27%
Cc1ccc(CNC(=O)NC2CCCN(c3ncccn3)C2)n1C (stereo not drawn) | -8.01%
CN(C)C(=O)Cc1ccc(NC(=O)NC2CCCC2)cc1 | -7.5%
CC(C)CN1CCN(C(=O)c2cc(=O)c3ccccc3[nH]2)CC1 | -2.68%
COCc1ccccc1NC(=O)NCc1ccc(OCC2CC2)nc1 | -7.17%
O=C(NCc1ccc(OCC2CC2)nc1)Nc1c(F)cccc1F | -2.96%
Cc1nn(CC(=O)N2CCCN(c3cccnn3)CC2)c(C)c1Cl | 0.771%
Cc1nc(CC(=O)N2CCN(Cc3ccc(C#N)cc3)CC2)cs1 | -1.78%
CCOc1ccc(S(=O)(=O)NC(=O)c2c(C)noc2C(C)C)cc1 | 1.8%
Cc1ccc(CCCC(=O)N(C)CCN2CCOCC2)cc1 | 13.8%
COc1ccc(CCC(=O)N(C)CCN2CCOCC2)cc1OC | -7.02%
Cc1cnn(CC2CCCN2C(=O)Cc2c(C)noc2Cl)c1 (stereo not drawn) | -4.41%

SMILES | cytotoxicity at 70.5 h
Cc1nccn1C1CCCN(C(=O)c2cnn(C)c2C2CC2)C1 (stereo not drawn) | -0.648%
Cc1ncncc1C(=O)N1CCCC(n2ccnc2C)C1 (stereo not drawn) | 1.79%
CC1CCCCN1C(=O)c1n[nH]c(=O)c2ccccc12 (stereo not drawn) | 32.4%
CC(OCCCNC(=O)c1cccnc1O)c1ccccc1 (stereo not drawn) | -1.73%
CC(=O)NCCNC(=O)c1ccc(C)c(-n2cccc2)c1 | -10.2%
Cc1ccc(C(=O)NC2CCOc3ccccc32)cc1S(C)(=O)=O (stereo not drawn) | 27.5%
COC(=O)c1ccoc1CN(C)CC(=O)N(C)C | -8.41%
O=C(NCc1ccccc1F)N1CCCCC1C1OCCO1 (stereo not drawn) | -17.1%
CCCc1noc(C(C)N2CCN(c3ccc(C#N)cn3)CC2)n1 (stereo not drawn) | -10.8%
CC(c1nc(C(C)(C)C)no1)N1CCN(c2ccc(C#N)cn2)CC1 (stereo not drawn) | -13.9%
Cn1ccc2c(C(=O)N3CCN(C(=O)C4CCCC4)CC3)cccc21 | -5.41%
CC(=O)N(C)C1CCN(C(=O)c2cccc3c2ccn3C)CC1 | 24.8%
CC(C)C(C)NC(=O)Nc1ccc(CS(=O)(=O)C(C)C)cc1 (stereo not drawn) | -12.6%
CNC(=O)C1CCCCN1C(=O)c1n[nH]c(=O)c2ccccc12 (stereo not drawn) | -6.33%
O=C(CCNC(=O)c1cccc(OC(F)F)c1)Nc1cccnc1 | -3.8%
COc1cccc2c1OCC(NC(=O)NCCc1ccccn1)C2 (stereo not drawn) | -9.54%
CC(C)NC(=O)Nc1ccc(CS(C)(=O)=O)cc1 | -0.657%
Cc1cnn(CC2CCCN2C(=O)CCc2c(C)nn(C)c2C)c1 (stereo not drawn) | -18.5%
CC(C)c1ccc(C(CN)N2CCc3sccc3C2)cc1 (stereo not drawn) | -2.57%
CCCc1noc(CCC(=O)N2CCCCC2Cn2cc(C)cn2)n1 (stereo not drawn) | -13.5%
COc1cccc(N2CCN(CCC(=O)NC3CCCCC3)CC2)c1 | 16.7%
Cc1ccc(CCNC(=O)N2CCC(Cc3cnn(C)c3)C2)cn1 (stereo not drawn) | -1.42%
COc1ccc(C(=O)NCCCOC(C)c2ccccc2)c(OC)c1 (stereo not drawn) | -11.1%
Cc1cnn(CC2CCCN2C(=O)Cc2c(C)noc2C)c1 (stereo not drawn) | -14%

SMILES | cytotoxicity at 70.5 h
CN(CCc1ccncc1)C1CCCN(Cc2noc(C3CC3)n2)C1 (stereo not drawn) | -2.71%
Cc1ccc(O)c(CNC2CCc3nc(C)nn3C2)n1 (stereo not drawn) | -0.718%
COCCOCC(=O)Nc1cc(C)ccc1F | 4.73%
CCc1ccc(CC(=O)N2CCN(c3nccn3C)CC2)cc1 | 8.19%
CN(CCn1cccn1)C1CCCN(Cc2noc(C3CC3)n2)C1 (stereo not drawn) | 12.7%
CN(Cc1nc2ccccc2s1)C1CCCN(c2cccnn2)C1 (stereo not drawn) | -11%
O=C(CN1CCS(=O)(=O)CC1)NCc1ccccc1F | -8.79%
CCCC(=O)NC(C)(C)Cc1ccccc1OC | -12.8%
CCSCCC(=O)NC1CCN(C(C)c2ccccc2)CC1 (stereo not drawn) | -10.7%
N#CCCN(Cc1cccnc1)C(=O)c1cccc(-n2cnnn2)c1 | -8.57%
COc1ccc(S(=O)(=O)C(C)C(=O)NCCOc2cccc(C)c2)cc1 (stereo not drawn) | -3.65%
Cc1cccnc1CNC(=O)NC(C)Cc1c(C)nn(C)c1C (stereo not drawn) | -5.5%
COC(=O)N1CCCC(C(=O)Nc2nc(C)c(SC)s2)C1 (stereo not drawn) | -9.54%
CCc1nsc(N2CCN(C(=O)c3ccnc(N(C)C)c3)CC2)n1 | -6.45%
Cn1cc(CNCCc2nccs2)c(-c2cccnc2)n1 | -8.44%
Cc1nc(NC(=O)COCC2CC2)ccc1Br | -8.55%
CN(Cc1nc2ccccc2c(=O)[nH]1)C1CC(=O)N(C2CC2)C1=O (stereo not drawn) | -12.1%
COC(=O)c1ccc(CNC(C)c2ccc(S(C)(=O)=O)cc2)cc1 (stereo not drawn) | -1.14%
CC(=O)NCCNC(=O)NCCc1c(C)cc(C)cc1C | 0.521%
Cc1ccc(F)c(S(=O)(=O)NCc2cccc(N3CCOC3=O)c2)c1 | -4.03%
N#Cc1cnc(NCc2ccc(C(=O)NC3CC3)cc2)c(Cl)c1 | -4.64%
CS(=O)(=O)Cc1ccc(CNc2ncc(C#N)cc2Cl)cc1 | 1.58%
